The values that follow are results of earlier work, collected in US20100035949A1 (priority 2006, published 2010).

For data set [1] the following is noted: pH dependent; decreases as pH increases from acidic to neutral.
For data set [2] the following is noted: humans.

As to `CCCCC(=O)N(Cc1ccc(-c2ccccc2-c2nnn[nH]2)cc1)[C@H](C(=O)O)C(C)C` [valsartan, (S)-N-valeryl-N-{[2′-(1H-tetrazole-5-yl)-biphenyl4-yl]-methyl}-valine], the permeability result in data set [1] is “low”. Further, the oral bioavailability entry in data set [2] (known dosage forms) is recorded as “about 25%”. In data set [2] (wide range with large inter- and intra-subject variabilities), the “oral bioavailability, range” value is reported as 25-40%.
